Results from US6316482A, “Benzamide derivatives having a vasopressin antagonistic activity” (Fujisawa Pharmaceutical Co., Ltd., priority 1996, dated 2001).
Counter-ions that a name gives are not always drawn.

Assays:
[1] = biological target: Vasopressin 1 (V1) receptor (Homo sapiens, UniProt P37288); experiment: Vasopressin 1 (V1) receptor binding; conditions: platelet membranes from normal subjects; competition vs 1.5 nM 3H-vasopressin; 15 minutes at 30° C.; pH 7.4
[2] = biological target: human V2 receptor (Homo sapiens, UniProt P30518); experiment: Vasopressin 2 (V2) receptor binding; conditions: membranes of CHO cells expressing human V2 receptor; competition vs 0.5 nM 3H-vasopressin; 2 hours at 22° C.; pH 7.4
human V2 receptor, sequence (P30518 whole entry): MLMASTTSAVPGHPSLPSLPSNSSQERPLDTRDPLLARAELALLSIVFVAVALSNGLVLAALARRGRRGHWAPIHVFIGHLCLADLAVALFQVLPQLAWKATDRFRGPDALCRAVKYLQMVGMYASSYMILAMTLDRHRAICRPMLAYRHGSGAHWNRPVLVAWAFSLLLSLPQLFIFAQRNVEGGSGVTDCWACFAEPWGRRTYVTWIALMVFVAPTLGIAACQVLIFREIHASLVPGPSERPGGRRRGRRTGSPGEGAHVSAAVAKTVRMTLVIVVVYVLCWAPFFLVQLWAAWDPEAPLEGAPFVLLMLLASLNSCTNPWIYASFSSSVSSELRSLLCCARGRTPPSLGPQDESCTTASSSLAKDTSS

Vasopressin 1 (V1) receptor, sequence (P37288 whole entry): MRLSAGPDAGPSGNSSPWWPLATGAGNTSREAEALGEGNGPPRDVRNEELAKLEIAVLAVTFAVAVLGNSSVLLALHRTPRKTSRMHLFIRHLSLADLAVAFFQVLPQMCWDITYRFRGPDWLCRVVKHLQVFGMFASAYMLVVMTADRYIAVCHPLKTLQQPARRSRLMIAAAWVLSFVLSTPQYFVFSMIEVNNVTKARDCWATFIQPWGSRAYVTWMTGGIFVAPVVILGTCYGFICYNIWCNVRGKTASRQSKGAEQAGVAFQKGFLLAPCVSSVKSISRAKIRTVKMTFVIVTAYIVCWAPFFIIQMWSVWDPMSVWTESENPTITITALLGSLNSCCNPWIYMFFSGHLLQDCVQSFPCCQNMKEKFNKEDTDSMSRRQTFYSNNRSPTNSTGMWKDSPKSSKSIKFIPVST

| Structure (SMILES) | IC50 [1] | IC50 [2] |
| --- | --- | --- |
| COc1cc(C(=O)N(C)c2ccc(C)cc2OCCCCCC(=O)N2CCN(C)CC2)ccc1NC(=O)c1cccc2[nH]c(CN)nc12 [Example 39-27, 4-(2-Aminomethyl-1H-benzimidazol-4-yl)carbonylamino-3-methoxy-N-methyl-N-[4-methyl-2-[5-(4-methylpiperazin-1-yl)carbonylpent-1-yloxy]phenyl]benzamidetrihydrochloride] | 1.5 nM | 460 nM |
| COc1cc(C(=O)N(C)c2ccc(C)cc2OCCCCCC(=O)N2CCN(C)CC2)ccc1NC(=O)c1cccc2[nH]c(CO)nc12 [Example 39-35, 4-(2-Hydroxymethyl-1H-benzimidazol-4-yl)carbonylamino-3-methoxy-N-methyl-N-[4-methyl-2-[5-(4-methylpiperazin-1-yl)carbonylpent-1-yloxy]phenyl]benzamide dihydrochloride] | < 1 nM | 380 nM |
| COc1cc(C(=O)N(C)c2ccc(C)cc2OCCCCCC(=O)N2CCN(C)CC2)ccc1C(=O)Nc1cccc2[nH]c(C)nc12 [Example 115-71, 3-Methoxy-N-methyl-4-[2-mehtyl-1H-benzimidazol-4-yl]carbamoyl-N-[4-methyl-2-[5-(4-methylpiperazin-1-yl)-carbonylpent-1-yloxy]phenyl]benzamide dihydrochloride] | 0.7 nM |  |
| COc1cc(C(=O)N(C)c2ccc(C)cc2OCCCCCC(=O)N2CCN(C)CC2)ccc1C(=O)Nc1cccc2[nH]c(CN3CCN(C)CC3)nc12 [Example 115-81, 3-Methoxy-N-methyl-N-[4-methyl-2-[5-(4-methylpiperazin-1-yl)carbonylpent-1-yloxy]phenyl]-4-[2-[(4-methyl-piperazin-1-yl)methyl]-1H-benzimidazol-4-yl]-carbamoylbenzamide trihydrochloride] | 4.5 nM |  |
